Reference: patent publication US20250325534A1, “MICROBIOCIDAL TETRAHYDROISOQUINOLINE DERIVATIVES” (SYNGENTA CROP PROTECTION AG, priority 2021, published 2025)

What was measured:
Pyrenophora teres = Pyrenophora teres / barley / leaf disc preventative (net blotch); type: in vivo; details: foliar, inoculated 2 days after application
Experimental: Example B16: Pyrenophora teres/Barley/Leaf Disc Preventative (Net Blotch) Barley leaf segments cv. Hasso are placed on agar in a multiwell plate (24-well format) and sprayed with the formulated test compound diluted in water. The leaf segments are inoculated with a spore suspension of the fungus 2 days after application. The inoculated leaf segments are incubated at 20° C. and 65% relative humidity under a light regime of 12 h light/12 h darkness in a climate cabinet and the activity of a compound is assessed as disease control compared to untreated when an appropriate level of disease damage appears in untreated check leaf segments (5-7 days after application).

Sclerotinia sclerotiorum = Sclerotinia sclerotiorum / liquid culture (cottony rot); type: cell-based; details: 72 h, photometrically 3-4 days after application, read-out: control of Sclerotinia sclerotiorum
Experimental: Example B18: Sclerotinia sclerotiorum/Liquid Culture (Cottony Rot) Mycelia fragments of a newly grown liquid culture of the fungus are directly mixed into a nutrient broth (potato dextrose broth). After placing a DMSO solution of test compound into a microtiter plate (96-well format) the nutrient broth containing the fungal material is added. The test plates are incubated at 24° C. and the inhibition of growth is determined photometrically 3-4 days after application.

Alternaria solani = Alternaria solani / tomato / leaf disc (early blight); type: in vivo; details: foliar, inoculated 2 days after application, vs untreated control
Botryotinia fuckeliana = Botryotinia fuckeliana (Botrytis cinerea) / liquid culture (gray mould); type: cell-based; details: 72 h, growth inhibition photometrically 3-4 days after application, read-out: control of Botryotinia fuckeliana
Procedure, shortened: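 Botrytis cinerea conidia in Vogels nutrient broth added to test compound delivered in DMSO. Incubated at 24 °C; growth inhibition measured photometrically 3–4 days after application.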

Glomerella lagenarium = Glomerella lagenarium (Colletotrichum lagenarium) / liquid culture (anthracnose); type: cell-based; details: Colletotrichum orbiculare, 72 h, photometrically 3-4 days after application, read-out: control of Glomerella lagenarium
Procedure, shortened: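 Conidia in potato dextrose broth added to test compound delivered as DMSO solution in microtiter plates; incubation at 24° C. Growth inhibition read photometrically 3-4 days after application.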

Fusarium culmorum = test: microbe, parasite or virus in culture; type: cell-based; details: 72 h, read-out: control of Fusarium culmorum
Phaeosphaeria nodorum = Phaeosphaeria nodorum (Septoria nodorum) / wheat / leaf disc preventative (glume blotch); type: in vivo; details: Parastagonospora nodorum, foliar, inoculated 2 days after application
Procedure, shortened: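 Wheat leaf discs (cv. Kanzler) on agar were sprayed with formulated compound diluted in water, then inoculated with spores 2 days later. Incubation was at 20 °C and 75% relative humidity under 12 h light/12 h dark. Percent disease control versus untreated was scored 5–7 days after application.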

Monographella nivalis = Monographella nivalis (Microdochium nivale) / liquid culture (foot rot cereals); type: cell-based; details: 96 h, photometrically 4-5 days after application, read-out: control of Monographella nivalis
Procedure, shortened: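 Test compound, applied as a DMSO solution, was challenged with fungal spores suspended in potato dextrose broth; after 4-5 days at 24° C, photometric readout gave inhibition of growth.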

Mycosphaerella arachidis = Mycosphaerella arachidis (Cercospora arachidicola) / liquid culture (early leaf spot); type: cell-based; details: 96 h, photometrically 4-5 days after application, read-out: control of Mycosphaerella arachidis
Procedure, shortened: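 Photometric growth inhibition, read 4-5 days post-application at 24 °C, of Cercospora arachidicola spores suspended in potato dextrose broth and exposed to test compound delivered from DMSO solution.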

[1] = tested on: Mycosphaerella graminicola; test: Mycosphaerella graminicola (Septoria tritici) / liquid culture (Septoria blotch); type: cell-based; details: Zymoseptoria tritici, 96 h, photometrically 4-5 days after application, read-out: control of Mycosphaerella graminicola
Procedure, shortened: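 Growth inhibition measured by photometry 4-5 days post application, at 24° C incubation. Test compound supplied as DMSO solution; fungal conidia from cryostorage suspended directly in potato dextrose broth as inoculum.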

[2] = tested on: Blumeria graminis f. sp. tritici; test: Blumeria graminis f. sp. tritici / wheat / leaf disc preventative (powdery mildew); type: in vivo; details: foliar, inoculated 1 day after application
Experimental: Example B7: Blumeria graminis f. Sp. Tritici (Erysiphe graminis f. Sp. Tritici)/Wheat/Leaf Disc Preventative (Powdery Mildew on Wheat) Wheat leaf segments cv. Kanzler are placed on agar in a multiwell plate (24-well format) and sprayed with the formulated test compound diluted in water. The leaf disks are inoculated by shaking powdery mildew infected plants above the test plates 1 day after application. The inoculated leaf disks are incubated at 20° C. and 60% relative humidity under a light regime of 24 h darkness followed by 12 h light/12 h darkness in a climate chamber and the activity of a compound is assessed as percent disease control compared to untreated when an appropriate level of disease damage appears on untreated check leaf segments (6-8 days after application).

[3] = tested on: Puccinia recondita f. sp. tritici; test: Puccinia recondita f. sp. tritici / wheat / leaf disc preventative (brown rust); type: in vivo; details: foliar, inoculated 1 day after application
Experimental: Example B14: Puccinia recondita f. Sp. Tritici/Wheat/Leaf Disc Preventative (Brown Rust) Wheat leaf segments cv. Kanzler are placed on agar in multiwell plates (24-well format) and sprayed with the formulated test compound diluted in water. The leaf disks are inoculated with a spore suspension of the fungus 1 day after application. The inoculated leaf segments are incubated at 19° C. and 75% relative humidity under a light regime of 12 h light/12 h darkness in a climate cabinet and the activity of a compound is assessed as percent disease control compared to untreated when an appropriate level of disease damage appears in untreated check leaf segments (7-9 days after application).

Cn1cc(C2CN(C(=O)c3cc(-c4ccc(F)cc4F)on3)Cc3ccccc32)cn1 (single isomer, unassigned) [Compound P-143, [5-(2,4-difluorophenyl)isoxazol-3-yl]-[4-(1-methylpyrazol-4-yl)-3,4-dihydro-1H-isoquinolin-2-yl]methanone]
≥ 80%: pest or weed control at 200 ppm (Pyrenophora teres) | inhibition of growth at 20 ppm (Sclerotinia sclerotiorum)

Cc1c(C2CN(C(=O)c3nnc(-c4ccccc4F)s3)Cc3ccccc32)cnn1C (stereo not shown) [Compound P-64, [4-(1,5-dimethylpyrazol-4-yl)-3,4-dihydro-1H-isoquinolin-2-yl]-[5-(2-fluorophenyl)-1,3,4-thiadiazol-2-yl]methanone]
≥ 80%: pest or weed control at 200 ppm (Alternaria solani) | inhibition of growth at 20 ppm (Botryotinia fuckeliana) | inhibition of growth at 20 ppm (Glomerella lagenarium) | inhibition of growth at 20 ppm (Fusarium culmorum) | pest or weed control at 200 ppm (Phaeosphaeria nodorum) | inhibition of growth at 20 ppm (Monographella nivalis) | inhibition of growth at 20 ppm (Mycosphaerella arachidis) | pest or weed control at 200 ppm (Pyrenophora teres) | inhibition of growth at 20 ppm [1]

Cc1c(C2c3ccccc3CN(C(=O)c3cc(-c4ccc(F)cc4F)on3)C2(C)C)cnn1C (stereo not shown) [Compound P-100, [5-(2,4-difluorophenyl)isoxazol-3-yl]-[4-(1,5-dimethylpyrazol-4-yl)-3,3-dimethyl-1,4-dihydroisoquinolin-2-yl]methanone]
≥ 80%: pest or weed control at 200 ppm (Alternaria solani) | inhibition of growth at 20 ppm (Botryotinia fuckeliana) | inhibition of growth at 20 ppm (Glomerella lagenarium) | pest or weed control at 200 ppm (Phaeosphaeria nodorum) | inhibition of growth at 20 ppm (Monographella nivalis) | inhibition of growth at 20 ppm (Mycosphaerella arachidis) | pest or weed control at 200 ppm (Pyrenophora teres) | inhibition of growth at 20 ppm (Sclerotinia sclerotiorum) | inhibition of growth at 20 ppm [1]

Cn1cc(C2CN(C(=O)c3cc(-c4ccccc4)on3)Cc3ccc(C(F)(F)F)cc32)cn1 (stereo not shown) [Compound P-104, [4-(1-methylpyrazol-4-yl)-6-(trifluoromethyl)-3,4-dihydro-1H-isoquinolin-2-yl]-(5-phenylisoxazol-3-yl)methanone]
≥ 80%: pest or weed control at 200 ppm (Alternaria solani) | inhibition of growth at 20 ppm (Glomerella lagenarium) | pest or weed control at 200 ppm [2] | pest or weed control at 200 ppm (Phaeosphaeria nodorum) | inhibition of growth at 20 ppm (Monographella nivalis) | inhibition of growth at 20 ppm (Mycosphaerella arachidis) | pest or weed control at 200 ppm [3] | pest or weed control at 200 ppm (Pyrenophora teres) | inhibition of growth at 20 ppm [1]

Cc1c(C2CN(C(=O)c3cc(-c4ccc(F)cc4)no3)Cc3ccccc32)cnn1C (stereo not shown) [Compound P-109, [4-(1,5-dimethylpyrazol-4-yl)-3,4-dihydro-1H-isoquinolin-2-yl]-[3-(4-fluorophenyl)isoxazol-5-yl]methanone]
≥ 80%: pest or weed control at 200 ppm (Alternaria solani) | inhibition of growth at 20 ppm (Botryotinia fuckeliana) | inhibition of growth at 20 ppm (Glomerella lagenarium) | pest or weed control at 200 ppm [2] | pest or weed control at 200 ppm (Phaeosphaeria nodorum) | inhibition of growth at 20 ppm (Monographella nivalis) | inhibition of growth at 20 ppm (Mycosphaerella arachidis) | pest or weed control at 200 ppm [3] | pest or weed control at 200 ppm (Pyrenophora teres) | inhibition of growth at 20 ppm (Sclerotinia sclerotiorum) | inhibition of growth at 20 ppm [1]

Cc1c(C2CN(C(=O)c3cc(-c4ccccc4F)on3)Cc3ccccc32)cnn1C (stereo not shown) [Compound P-119, [4-(1,5-dimethylpyrazol-4-yl)-3,4-dihydro-1H-isoquinolin-2-yl]-[5-(2-fluorophenyl)isoxazol-3-yl]methanone]
≥ 80%: pest or weed control at 200 ppm (Alternaria solani) | inhibition of growth at 20 ppm (Botryotinia fuckeliana) | inhibition of growth at 20 ppm (Glomerella lagenarium) | inhibition of growth at 20 ppm (Fusarium culmorum) | pest or weed control at 200 ppm (Phaeosphaeria nodorum) | inhibition of growth at 20 ppm (Monographella nivalis) | inhibition of growth at 20 ppm (Mycosphaerella arachidis) | pest or weed control at 200 ppm (Pyrenophora teres) | inhibition of growth at 20 ppm [1]

Cn1cc(C2CN(C(=O)c3cc(-c4ccc(F)cc4F)on3)Cc3ccccc32)cn1 (stereo not shown) [Compound P-180, [5-(2,4-difluorophenyl)isoxazol-3-yl]-[4-(1-methylpyrazol-4-yl)-3,4-dihydro-1H-isoquinolin-2-yl]methanone]
≥ 80%: pest or weed control at 200 ppm (Alternaria solani) | inhibition of growth at 20 ppm (Botryotinia fuckeliana) | inhibition of growth at 20 ppm (Glomerella lagenarium) | pest or weed control at 200 ppm (Phaeosphaeria nodorum) | inhibition of growth at 20 ppm (Monographella nivalis) | inhibition of growth at 20 ppm (Mycosphaerella arachidis) | pest or weed control at 200 ppm (Pyrenophora teres) | inhibition of growth at 20 ppm (Sclerotinia sclerotiorum) | inhibition of growth at 20 ppm [1]
